Experimental data as given in patent US20240254138A1, “TRICYCLIC PYRIMIDINES AS CYCLIN-DEPENDENT KINASE 7 (CDK7) INHIBITORS” (JANSSEN PHARMACEUTICA NV, priority 2021, published 2024).
Read-outs that look alike come from different tables or passages of the source.

Experiments:
[1] = test system: RNA Polymerase II Serine 5 phosphorylation (Rpb1 CTD, downstream substrate of CDK7) in A549 cells; test: Imaging-based cellular RNA PolII Ser5 phosphorylation assay in A549 cells; format: cell-based, human; details: wild-type CDK7, RNA PolII Ser5 phosphorylation, averaged over all measurements; for IC50: Homo sapiens, A549, A549 cells, read-out: CDK7_A549 Wild-type CDK7 (pIC50) (converted); for CDK7_A549 Wild-type CDK7 (pIC50): A549 cells
Method in brief: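 IC50 derived by fitting % control (DMSO high, 10 μM reference low) against concentration, with Hill slope. Readout: high-content imaging of phospho-Ser5 Rpb1 CTD antibody staining in fixed, permeabilized A549 cells exposed to compound 3 h after 20 h culture in 1% FBS DMEM.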

[2] = test system: RNA Polymerase II Serine 5 phosphorylation in A549 cells overexpressing CDK7-mutant (C312S); test: Imaging-based cellular RNA PolII Ser5 phosphorylation assay in A549 cells overexpressing CDK7-mutant (C312S); format: cell-based, human; details: RNA PolII Ser5 phosphorylation, averaged over all measurements; for IC50: Homo sapiens, A549, A549 cells overexpressing CDK7-mutant (C312S), read-out: CDK7_A549 mutant hCDK7(pIC50) (converted); for CDK7_A549 mutant hCDK7(pIC50): A549 cells overexpressing CDK7-mutant (C312S)
Method in brief: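 Readout was automated imaging of anti-phospho-Ser5 Rpb1 CTD immunofluorescence, with IC50 fitted to % control versus concentration. Cells were A549 stably overexpressing non-covalently targetable CDK7 C312S alongside wild-type, exposed to compound 3 h at 37 °C. DMSO and 10 μM reference compound served as controls.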

[3] = biological target: CDK7/cyclinH/MAT1 trimeric complex (Homo sapiens, UniProt P50613); test: In vitro CDK7 assay, potency of irreversible covalent inhibitors (kinact/KI), coupled PK/LDH ADP readout at 340 nm
CDK7/cyclinH/MAT1 trimeric complex, sequence (P50613 whole entry): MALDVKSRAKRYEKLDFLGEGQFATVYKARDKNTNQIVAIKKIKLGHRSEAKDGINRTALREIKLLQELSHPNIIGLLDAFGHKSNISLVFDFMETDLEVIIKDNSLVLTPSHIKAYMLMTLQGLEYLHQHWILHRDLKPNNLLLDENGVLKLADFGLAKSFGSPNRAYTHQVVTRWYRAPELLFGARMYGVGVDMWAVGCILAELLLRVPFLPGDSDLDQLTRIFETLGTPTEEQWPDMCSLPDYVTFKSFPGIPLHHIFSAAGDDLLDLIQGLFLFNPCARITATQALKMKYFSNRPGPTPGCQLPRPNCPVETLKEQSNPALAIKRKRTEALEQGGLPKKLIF
CDK7/cyclinH/MAT1 trimeric complex, sequence (P51946 whole entry partner): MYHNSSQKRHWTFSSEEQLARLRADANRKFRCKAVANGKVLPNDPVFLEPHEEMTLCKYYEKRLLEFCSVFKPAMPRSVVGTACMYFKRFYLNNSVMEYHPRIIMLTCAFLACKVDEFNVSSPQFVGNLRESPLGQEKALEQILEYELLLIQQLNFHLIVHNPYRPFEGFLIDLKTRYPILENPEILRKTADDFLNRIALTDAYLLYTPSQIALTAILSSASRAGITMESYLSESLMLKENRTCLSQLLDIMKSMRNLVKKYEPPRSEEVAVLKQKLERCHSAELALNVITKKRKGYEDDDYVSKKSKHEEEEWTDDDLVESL
CDK7/cyclinH/MAT1 trimeric complex, sequence (P51948 whole entry partner): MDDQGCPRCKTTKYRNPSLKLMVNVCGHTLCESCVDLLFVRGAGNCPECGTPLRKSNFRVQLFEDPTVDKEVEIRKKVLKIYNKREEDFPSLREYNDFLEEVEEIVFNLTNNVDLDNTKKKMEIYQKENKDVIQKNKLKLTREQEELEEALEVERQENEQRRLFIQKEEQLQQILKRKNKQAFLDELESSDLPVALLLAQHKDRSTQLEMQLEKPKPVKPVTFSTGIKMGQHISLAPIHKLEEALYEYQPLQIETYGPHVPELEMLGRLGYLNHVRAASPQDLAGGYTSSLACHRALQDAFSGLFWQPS

[4] = read-out: CDK7 (kinact/KI, M^−1*s^−1), potency of irreversible covalent inhibitors, 1 mM ATP, room temperature, averaged values over all measurements
[5] = CDK7 (KI(μM)), […], 1 mM ATP, room temperature, averaged values over all measurements
[6] = read-out: CDK7 (kinact, s^−1), kinact = maximal rate of inactivation, 1 mM ATP, room temperature, averaged values over all measurements
[7] = read-out: CDK7 (20 nM enz.) (kinact/KI, M^−1*s^−1), 20 nM enzyme
[8] = CDK7 (20 nM enz.) (KI, μM), 20 nM enzyme
[9] = read-out: CDK7 (20 nM enz.) (kinact, s^−1), 20 nM enzyme
[10] = read-out: CDK7 (20 nM enz.) (kobs/[I], M^−1*s^−1), 20 nM enzyme

IC50 [1] [nM]	IC50 [2] [nM]	kinact/KI [3, 7] [M⁻¹ s⁻¹]	Ki [3, 8] [µM]	kinact [3, 9] [s⁻¹]	SMILES	other results
> 10000	> 10000	–	–	–	C=CC(=O)N1CCC(c2ccc3c(c2)OCc2c(N4CCOCC4)ccnc2N3)C1 (stereo not shown) [Compound 55]	kinact/KI [3, 4]: 2.45 M⁻¹ s⁻¹
182	> 10000	–	–	–	C=CC(=O)N1CC(c2ncc(-c3ccc4c(c3)Nc3nccc(N5CCOCC5)c3CO4)cn2)C1 [Compound 56]	Ki [3, 5]: 0.0673 µM; kinact [3, 6]: 6.99e-05 s⁻¹; kinact/KI [3, 4]: 1040 M⁻¹ s⁻¹
1200	> 3980	–	–	–	O=C(/C=C/CN1CCOCC1)N1CC(N2CCC(c3ccc4c(c3)Nc3nccc(N5CCOCC5)c3CO4)CC2)C1 [Compound 57]	Ki [3, 5]: 0.248 µM; kinact [3, 6]: 0.000129 s⁻¹; kinact/KI [3, 4]: 518 M⁻¹ s⁻¹
490	> 10000	–	–	–	C=CC(=O)N1CC(c2cc(-c3ccc4c(c3)Nc3nccc(N5CCOCC5)c3CO4)ccn2)C1 [Compound 58]	Ki [3, 5]: 0.112 µM; kinact [3, 6]: 5.76e-05 s⁻¹; kinact/KI [3, 4]: 516 M⁻¹ s⁻¹
72.4	–	1480	–	–	C=CC(=O)N1CC(N2CCC(c3cc(C)c4c(c3)Nc3nccc(C5CCOCC5)c3CO4)CC2)C1 [Compound 59]	CDK7_A549 mutant hCDK7(pIC50) [2]: <5.4
977	> 10000	502	0.128	6.43e-05	C=CC(=O)N1CC(N2CCC(c3ccc4c(c3)Nc3ncc(Cl)c(N5CCS(=O)(=O)CC5)c3CO4)CC2)C1 [Compound 60]	–
1620	> 10000	36.6	1.32	4.84e-05	C=CC(=O)N1CC(c2ccnc(-c3ccc4c(c3)Nc3nccc(N5CCOCC5)c3CO4)c2)C1 [Compound 61]	–
77.6	> 10000	2410	0.0266	6.42e-05	C=CC(=O)N1CC(N2CCC(c3cc(F)c4c(c3)Nc3nccc(N5CCOCC5)c3CO4)CC2)C1 [Compound 62]	–
288	> 10000	885	0.0857	7.59e-05	C=CC(=O)N1CC(N2CCC(c3ccc4c(c3)Nc3nccc(N5CCOC[C@@H]5C)c3CO4)CC2)C1 [Compound 63]	–
> 10000	> 10000	32	0.445	1.43e-05	C=CC(=O)N1CCC2(CC1)CC(Cc1ccc3c(c1)Nc1nccc(C4CCOCC4)c1CO3)C2 [Compound 64]	–
67.6	8710	–	–	–	C=CC(=O)Nc1ccc(CCc2ccc3c(c2)Nc2nccc(N4CCOCC4)c2CO3)cn1 [Compound 65]	kinact/KI [3, 10]: 1160 M⁻¹ s⁻¹
–	–	–	–	–	C=CC(=O)N1CC(N2CCC(c3cc(C)c4c(c3)Nc3nccc(N5CCOCC5)c3CO4)CC2)C1 [Compound 66]	CDK7_A549 Wild-type CDK7 (pIC50) [1]: 7.16; CDK7_A549 mutant hCDK7(pIC50) [2]: <5; kinact/KI [3, 10]: 1030 M⁻¹ s⁻¹
–	–	–	–	–	C=CC(=O)N1CC(N2[C@@H]3CC[C@H]2C[C@@H](c2ccc4c(c2)Nc2nccc(N5CCOCC5)c2CO4)C3)C1 [Compound 68]	CDK7_A549 Wild-type CDK7 (pIC50) [1]: 7.4; CDK7_A549 mutant hCDK7(pIC50) [2]: 5.14; CDK7 (20 nM enz.) (kobs/[I], M^−1*s^−1) ([3]; 20 nM enzyme): 1369 M⁻¹ s⁻¹
245	> 10000	973	0.0575	5.6e-05	C=CC(=O)N1CC(N2CCC(c3cc(C)c4c(c3)Nc3nccc(N5CCS(=O)(=O)CC5)c3CO4)CC2)C1 [Compound 71]	–
–	–	–	–	–	C=CC(=O)N1CC(N2CCC(c3cc(C)c4c(c3)Nc3nccc(C5CCOCC5)c3CO4)CC2)C1 [Compound 73]	CDK7_A549 Wild-type CDK7 (pIC50) [1]: 7.32; CDK7_A549 mutant hCDK7(pIC50) [2]: <5; CDK7 (20 nM enz.) (kinact/KI, M^−1*s^−1) ([3]; 20 nM enzyme): 1301.8 M⁻¹ s⁻¹
182	> 10000	1010	0.0571	5.75e-05	C=CC(=O)N1CC(N2CCC(c3ccc4c(c3)Nc3nccc(N5CCOC6(CC6)C5)c3CO4)CC2)C1 [Compound 77]	–
26.9	8130	–	–	–	C=CC(=O)N1CCC(N2CCC(c3cc(C)c4c(c3)Nc3nccc(N5CCOCC5)c3CO4)CC2)C1 (stereo not shown) [Compound 78]	kinact/KI [3, 10]: 908 M⁻¹ s⁻¹
37.2	5890	–	–	–	C=CC(=O)N1CCC(N2CCC(c3cc(C)c4c(c3)Nc3nccc(N5CCOCC5)c3CO4)CC2)CC1 [Compound 79]	kinact/KI [3, 10]: 766 M⁻¹ s⁻¹

IC50 [1] [nM]	IC50 [2] [nM]	kinact/KI [3, 7] [M⁻¹ s⁻¹]	Ki [3, 8] [µM]	kinact [3, 9] [s⁻¹]	SMILES	other results
417	> 10000	640	0.067	4.29e-05	C=CC(=O)N1CC(N2CCC(c3cc(C)c4c(c3)Nc3nccc(C5=CCS(=O)(=O)CC5)c3CO4)CC2)C1 [Compound 81]	–
46.8	7940	–	–	–	C=CC(=O)N1CC(N2CCC(c3cc(Br)c4c(c3)Nc3nccc(C5CCOCC5)c3CO4)CC2)C1 [Compound 82]	kinact/KI [3, 10]: 1570 M⁻¹ s⁻¹
575	> 10000	354	0.191	6.74e-05	C=CC(=O)N1CC(N2CCC(c3ccc4c(c3)Nc3nccc(N5CCS(=O)(=NC)CC5)c3CO4)CC2)C1 [Compound 84]	–
81.3	4370	–	–	–	C=CC(=O)N1CCC(N2CC(c3cc(Cl)c4c(c3)Nc3nccc(-c5cnn(C)c5)c3CO4)C2)CC1 [Compound 85]	kinact/KI [3, 10]: 608 M⁻¹ s⁻¹
1580	> 10000	63.1	0.397	2.5e-05	C=CC(=O)N1CCC(N2CC(c3cc(Cl)c4c(c3C)Nc3nccc(C5CCOCC5)c3CO4)C2)CC1 [Compound 86]	–
81.3	> 10000	–	–	–	C=CC(=O)N1CC(N2CCC(c3cc4c(c(C5CC5)c3)OCc3c(C5CCOCC5)ccnc3N4)CC2)C1 [Compound 87]	kinact/KI [3, 10]: 1420 M⁻¹ s⁻¹
162	> 10000	–	–	–	C=CC(=O)N1CC(N2CC(c3ccc4c(c3)Nc3nccc(N5CCOCC5)c3CO4)C2)C1 [Compound 88]	kinact/KI [3, 10]: 1050 M⁻¹ s⁻¹
–	–	–	–	–	C=CC(=O)N1CC(N2CCC(c3cc(Cl)c4c(c3)Nc3nccc(N5CCOCC5)c3CO4)CC2)C1 [Compound 91]	CDK7_A549 Wild-type CDK7 (pIC50) [1]: 7.42; CDK7_A549 mutant hCDK7(pIC50) [2]: <5; kinact/KI [3, 10]: 1740 M⁻¹ s⁻¹
> 10000	> 10000	11.2	3.37	3.79e-05	C=CC(=O)N=S1(=O)CCN(c2ccnc3c2COc2ccc(C4CCN(C5CN(C(=O)C=C)C5)CC4)cc2N3)CC1 [Compound 94]	–
288	> 10000	101	0.48	4.87e-05	C=CC(=O)N1CCC(N2CCC(c3ccc4c(c3)Nc3nccc(N5CCS(=O)(=NC)CC5)c3CO4)CC2)CC1 [Compound 95]	–
123	> 10000	–	0.184	–	C=CC(=O)N1CCC(N2CC(c3ccc4c(c3)Nc3nccc(C5CCOCC5)c3CO4)C2)CC1 [Compound 96]	CDK7 (20 nM enz.) (kinact, s^−1) ([3]; 20 nM enzyme): 4.701e-05 s⁻¹; CDK7 (20 nM enz.) (kinact/KI, M^−1*s^−1) ([3]; 20 nM enzyme): 255.867 M⁻¹ s⁻¹
44.7	> 10000	–	–	–	C=CC(=O)N1CC(N2CCC(c3cc(C)c4c(c3)Nc3nccc(-c5cnn(C)c5)c3CO4)CC2)C1 [Compound 99]	kinact/KI [3, 10]: 1440 M⁻¹ s⁻¹
51.3	3310	–	–	–	C=CC(=O)N1CCC(N2CC(c3cc(C)c4c(c3)Nc3nccc(-c5cnn(C)c5)c3CO4)C2)CC1 [Compound 100]	CDK7 (20 nM enz.) (kinact, s^−1) ([3]; 20 nM enzyme): 5.051e-05 s⁻¹; CDK7 (20 nM enz.) (kinact/KI, M^−1*s^−1) ([3]; 20 nM enzyme): 1179.87 M⁻¹ s⁻¹
64.6	> 10000	–	–	–	C=CC(=O)N1CC(N2CCC(c3cc(Cl)c4c(c3)Nc3nccc(C5CCOCC5)c3CO4)CC2)C1 [Compound 101]	kinact/KI [3, 10]: 1110 M⁻¹ s⁻¹
40.7	3550	1630	0.0268	4.38e-05	C=CC(=O)N1CCC(N2CC(c3cc4c(c(C(F)(F)F)c3)OCc3c(-c5cnn(C)c5)ccnc3N4)C2)CC1 [Compound 102]	–
126	> 10000	2020	0.0424	8.56e-05	C=CC(=O)N1CC(N2CCC(c3cc(Cl)c4c(c3)Nc3nccc(N5CCS(=O)(=O)CC5)c3CO4)CC2)C1 [Compound 103]	–
16.2	2570	2260	0.0256	5.8e-05	C=CC(=O)N1CCC(N2CCC(c3cc(C)c4c(c3)Nc3nccc(-c5cnn(C)c5)c3CO4)CC2)CC1 [Compound 105]	–
110	> 10000	943	0.056	5.28e-05	C=CC(=O)N1CC(N2CCC(c3ccc4c(c3)Nc3nccc(N5CCOCC5)c3CO4)CC2)C1 [Compound 107]	–

SMILES	IC50 [1] [nM]	IC50 [2] [nM]	kinact/KI [3, 7] [M⁻¹ s⁻¹]	Ki [3, 8] [µM]	kinact [3, 9] [s⁻¹]	other results
C=CC(=O)N1CC(N2CCC(O)(c3ccc4c(c3)Nc3nccc(N5CCOCC5)c3CO4)CC2)C1 [Compound 80]	417	> 10000	740	0.0563	4.16e-05	–
